Reference: patent US9877961B2, “Anticoagulant reversal agents” (PEROSPHERE INC., priority 2011, dated 2018)
Entries after “also recorded” stand apart in the source; their conditions may differ.

Key:
[1] = test system: LMWH (bemiparin) anticoagulation; assay: DAP reversal of LMWH (bemiparin) anticoagulation in vivo, aPTT; design: species or system rat
Text: (§1) The activated partial thromboplastin time (aPTT) assay is an assay that measures how long it takes for the blood to clot. Blood samples are collected for direct measurement or in tubes with oxalate and citrate to arrest coagulation by calcium until the assay can be performed. In the assay, a phospholipid, an activator (silica, celite, kaolin, ellagic acid, etc.), and calcium are mixed into the plasma to induce coagulation. The assay measures the time until a thrombus (clot) forms.
A male albino rat, weighing 470 g, was administered 10 mg of bemiparin (an overdose of LMWH) by subcutaneous injection. aPTT time was measured over the course of five hours. Four hours after LMWH administration, the rat received an intravenous dose of 200 mg/kg of DAP (100 mg DAP).

[2] = Stability of DAP powder: storage at 4° C. and differential scanning calorimetry; assay type: physicochemical
Description: An acetate salt of DAP was prepared as described herein. As described in these examples, DAP solid or powder refers to the acetate salt, while DAP in solution refers to the free base as the salt ionizes in aqueous solution. As described in these examples, the DAP compound used was the compound of Formula VII.
The DAP powder was tested for thermal stability in two ways. DAP was stored at 4° C. for 7 months prior to use. Additionally, the DAP solid was tested by differential scanning calorimetry (DSC) by heating from −20° C. to 200° C., back to −20° C. and again to 200° C.

[3] = DLS association of DAP with rivaroxaban; assay type: binding
Description: (§2) Rivaroxaban (XARELTO®) alone, DAP alone, and DAP:rivaroxaban combinations at mass ratios of 1:1 and 10:1 were added into an aqueous solution and analyzed by dynamic light scattering (DLS) to assess association of the DAP and rivaroxaban. A similar experiment was conducted on apixaban (ELIQUIS®) alone, DAP alone, and DAP:apixaban combinations at mass ratios of 1:1, 10:1 and 100:1. Fondaparinux (ARIXTRA®) alone, DAP alone, and fondaparinux:DAP combinations at mass ratios of 1:1, 10:1 and 100:1 were similarly tested. LMWH (bemiparin; HIBOR®), alone, DAP alone, and LMWH:DAP combinations at mass ratios of 1:1, 10:1, and 100:1 were also tested. The concentration of LMWH tested was 0.1 mg/ml. Therefore, at 1:1, 0.1 mg/ml DAP was tested, at 10:1, 1 mg/ml was tested, and at 100:1, 10 mg/ml DAP was tested.

plasma proteins = assay: Plasma protein binding; assay type: in vitro ADME; settings: data not shown
[4] = DLS association of DAP with LMWH (bemiparin); assay type: binding
Description: Dynamic light scattering (DLS) was used to assess association of 1 mg/ml unfractionated heparin and 1 mg/ml bemiparin (LMWH; HIBOR®), either alone or in combination with […] DAP in water (mass ratios of 100:1 of DAP to heparin or LMWH).
as §2

[5] = test system: rivaroxaban anticoagulation; assay: DAP reversal of rivaroxaban in human plasma ex vivo, Biophen anti-Factor Xa chromogenic assay; assay type: biochemical
Description: The anti-factor Xa assay directly measures anti-factor Xa activity. The methodology behind an anti-factor Xa assay is that patient plasma is added to a known amount of excess factor Xa and excess antithrombin. If a factor Xa inhibitor is present in the patient plasma, it will reduce the enzymatic activity of factor Xa. The amount of residual factor Xa is inversely proportional to the amount of anti-Xa agent in the plasma. The amount of residual factor Xa is detected by adding a chromogenic substrate that mimics the natural substrate of factor Xa, making residual factor Xa cleave it, releasing a colored compound that can be detected by a spectrophotometer. […]
(§3) 218 μg/L or 459 μg/L of rivaroxaban was added to human plasma, with or without 1,250 μg/L or 6,250 μg/L of DAP, respectively. […] DAP effect on anticoagulation was measured by 510 k cleared Biophen anti-Factor Xa chromogenic assay. Rivaroxaban concentrations were determined by comparison with plasma calibration standards, while apixaban concentrations were inferred from stock solution dilutions as calibration standards are not yet available.
218 μg/L rivaroxaban was added to human plasma either alone or in combination with 1.25, 12.5, 125, or 1,250 μg/L of DAP. Factor Xa activity was measured by 510 k cleared Biophen anti-Xa chromogenic assay kit. Rivaroxaban concentrations were determined by comparison with plasma calibration standards.

[6] = test system: rivaroxaban (XARELTO®) anticoagulation; assay: DAP reversal of rivaroxaban (XARELTO®) anticoagulation in vivo, aPTT; design: species or system rat; settings: rats, 5 mg/kg rivaroxaban oral, 5 mg/kg (2 mg) DAP i.v.
Description: as §1
5 mg/kg rivaroxaban (XARELTO®) was orally administered to rats. After four hours, 5 mg/kg of DAP (2 mg DAP) was administered intravenously. aPTT were measured at zero, 15, 30, 45, 60 and 240 minutes, prior to administration of DAP. aPTT was again measured at about 5, 10, 25, 35, 45, 60, 120, and 240 minutes after DAP administration.

apixaban anticoagulation = assay: DAP reversal of apixaban in human plasma ex vivo, Biophen anti-Factor Xa chromogenic assay; assay type: biochemical
Description: The anti-factor Xa assay directly measures anti-factor Xa activity. The methodology behind an anti-factor Xa assay is that patient plasma is added to a known amount of excess factor Xa and excess antithrombin. If a factor Xa inhibitor is present in the patient plasma, it will reduce the enzymatic activity of factor Xa. The amount of residual factor Xa is inversely proportional to the amount of anti-Xa agent in the plasma. The amount of residual factor Xa is detected by adding a chromogenic substrate that mimics the natural substrate of factor Xa, making residual factor Xa cleave it, releasing a colored compound that can be detected by a spectrophotometer. […] Results are given in anticoagulant concentration in units/mL of antifactor Xa, such that high values indicate high levels of anticoagulation and low values indicate low levels of anticoagulation.
as §3

[7] = DLS association of DAP with apixaban; assay type: binding
Description: as §2

[8] = test system: rivaroxaban anticoagulation; assay: Rat tail transection bleeding assay, rivaroxaban; assay type: in vivo
Description: Rat tail bleeding assay or rat tail transection assay is an assay that measures blood loss, e.g., blood loss after drug administration. In one embodiment, where the effect of the compound of the invention (e.g., DAP) is being tested, at the Tmax of the anticoagulant, DAP is administered intravenously. After 20 minutes, rat tails are transected approximately 1 mm from the tip, placed in room temperature saline, and blood is collected for 30 minutes and weighed.
Three rats each were administered 2 mg of rivaroxaban. One rat received a sham reversal containing no DAP, the second received 2.5 mg of DAP, and the third received 12.5 mg DAP. A fourth fat received sham anticoagulant and reversal doses (“sham”). 20 minutes after the reversal dose, tails were transected 1 mm from the tip, placed in room temperature saline, and blood loss was collected for 30 minutes and then weighed.

SMILES: N=C(N)NCCC[C@H](N)C(=O)NCCCN1CCN(CCCNC(=O)[C@@H](N)CCCNC(=N)N)CC1 (stereo in doubt) [DAP, 2-Amino-5-guanidino-pentanoic acid (3-{4-[3-(2-amino-5-guanidino-pentanoylamino)-propyl]-piperazin-1-yl}-propyl)-amide]
- time until aPTT below baseline after DAP ([1]; 200 mg/kg (100 mg) DAP i.v. four hours after 10 mg bemiparin s.c.): ≤ 60 min
- reversal of subcutaneous LMWH anticoagulation in vivo ([1]; rats, aPTT): reversed
- stability to storage as a lyophilized powder ([2]; 4° C.): more than one year
- stability of DAP powder on storage ([2]; 4° C., powder (acetate salt)): more than 12 months
- thermal stability (DSC, stability to sterilization) ([2]; heating from −20° C. to 200° C., twice): survived repeated heating to 200 °C
- binding by DLS [3]: directly bound
- plasma protein binding (plasma proteins): did not appreciably bind
- physical association / binding by DLS [4]: physically associated; also recorded: directly bound
- effective anticoagulant concentration after DAP ([5]; 218 μg/L rivaroxaban with 1,250 μg/L DAP, 459 μg/L rivaroxaban with 6,250 μg/L DAP): below the minimum effective concentration
- dose dependence of rivaroxaban reversal ([5]; 218 μg/L rivaroxaban, 1.25, 12.5, 125, or 1,250 μg/L DAP): dose-responsive trend; also recorded: dose-dependent reversal
- reversal of oral rivaroxaban anticoagulation in vivo [6]: effectively reversed
- effective anticoagulant concentration after DAP (apixaban anticoagulation; 156 μg/L apixaban with 1,156 μg/L DAP, 313 μg/L apixaban with 3,125 μg/L DAP): below the minimum effective concentration
- dose dependence of apixaban reversal (apixaban anticoagulation; human blood ex vivo): dose-dependent reversal
- binding by DLS [7]: directly bound
- blood loss (blood collected over 30 minutes) ([8]; 2 mg rivaroxaban and 12.5 mg DAP, p<0.05 vs rivaroxaban only): reduced blood loss to sham dose levels
- reversal of rivaroxaban, blood loss vs anticoagulant only ([8]; rat tail transection, 30 minutes): statistically significant reduction in blood loss
